Results taken from US7199153B2, “Pharmaceutical composition comprising paracetamol and niflumic acid” (SmithKline Beechman, p.l.c., priority 2000, dated 2007).

Test system: P-phenyl-quinone induced abdominal constriction in DBA/2 mice
Assay: P-phenyl-quinone induced mouse abdominal constriction (MAC) assay
Assay type: in vivo
Conditions: paracetamol alone at 50 mg/kg and 150 mg/kg, po
Protocol: The method is based on that described by Siegmund, Cadmus and Lu in “A Method for Evaluating both Non-Narcotic and Narcotic Analgesics” Proc. Soc. Exp. Biol. Med., 95: 729–731 (1957)).
DBA/2 mice were housed 20 per cage in a temperature and humidity controlled environment on a 12:12 hour light-dark cycle for five days with food and water ad libitum before testing. […] Ten animals were randomly allocated to each drug group and experimental designs were used that allowed complete randomisation of the testing of drug groups. Drugs were suspended in 1% methylcellulose and administered 10 ml/kg po, 60 mins pre-test. Abdominal constriction was induced by i.p. injection of 10 ml/kg P-phenyl-quinone (0.025% in 5% ethanol/water) and the total number of constrictions in a twenty minute period were measured. A constriction is defined as a flattening of the abdomen with extension of the hind limbs. Testing was blind with one experimenter observing five animals. All experiments were performed in accordance with the Animals (Scientific Procedures) Act 1986 and subject to local ethical committee approval.
For each drug group, the mean % inhibition of constrictions was calculated ((1-(test/control))*100) and appropriate statistics were performed on log-transformed data to test significant differences from vehicle and, in the case of groups receiving drug combinations, each drug alone.

CC(=O)Nc1ccc(O)cc1 [Paracetamol, N-acetyl-p-aminophenol]
% inhibition of constrictions, drug alone: small but significant effect
